Data: BindingDB's records for doi:10.1016/0960-894X(95)00404-H (1995)

Assay: Binding affinity to protein phosphatase, calcineurin (CN) was determined
With `C=CC[C@@H]1/C=C(\C)C[C@H](C)C[C@H](OC)[C@H]2O[C@@](O)(C(=O)C(=O)N3CCCC[C@H]3C(=O)O[C@H](/C(C)=C/[C@@H]3CC[C@@H](O)[C@H](OC)C3)[C@H](C)[C@@H](O)CC1=O)[C@H](C)C[C@@H]2OC` the Kd was 20 nM. For `C=CC[C@@H]1/C=C(\C)C[C@H](C)C[C@H](OC)[C@@H](O)[C@@H](OC)C[C@@H](C)CC(=O)C(=O)N2CCCC[C@H]2C(=O)O[C@H](/C(C)=C/[C@@H]2CC[C@@H](O)[C@H](OC)C2)[C@H](C)[C@@H](O)CC1=O` [18-(E)-allyl-11,21-Dihydroxy-23-[2-((R)-4-hydroxy-3-methoxy-cyclohexyl)-1-methyl-vinyl]-10,12-dimethoxy-8,14,16,22-pentamethyl-1,3,4,7,8,9,10,11,12,13,14,15,18,20,21,22,23,25a-octadecahydro-2H-24-oxa-4a-aza-benzocyclotricosene-5,6,19,25-tetraone], the Kd was 350 nM. Work on `CCCC1C(=O)CC[C@@H](C)[C@@H](CCc2cccnc2)OC(=O)[C@@H]2CCCN(C2)C(=O)C(=O)CSCC[C@@H](OC)C[C@@H](C)CC(=O)N1C` (stereo partly drawn) [(8S,10R,18R,19R,22R)-8-Methoxy-10,13,18-trimethyl-14-propyl-19-(2-pyridin-3-yl-ethyl)-20-oxa-5-thia-1,13-diaza-bicyclo[20.3.1]hexacosane-2,3,12,15,21-pentaone] yielded a Kd greater than 1000 nM. With `CCCC1C(=O)CC[C@@H](C)[C@@H](CCc2cccnc2)OC(=O)[C@@H]2CCCN(C2)C(=O)C(O)CC[S+]([O-])CC[C@@H](OC)C[C@@H](C)CC(=O)N1C` (stereo partly drawn) [(9S,11R,19R,20R,23R)-3-Hydroxy-9-methoxy-11,14,19-trimethyl-6-oxo-15-propyl-20-(2-pyridin-3-yl-ethyl)-21-oxa-6lambda*4*-thia-1,14-diaza-bicyclo[21.3.1]heptacosane-2,13,16,22-tetraone] the Kd was greater than 1000 nM. Compound `CCC(C)C1C(=O)CC[C@@H](C)[C@@H](CCc2cccnc2)OC(=O)[C@@H]2CCCN(C2)C(=O)C(=O)CCSCC[C@@H](OC)C[C@@H](C)CC(=O)N1C` (stereo partly drawn) [(9S,11R,19R,20R,23R)-15-sec-Butyl-9-methoxy-11,14,19-trimethyl-20-(2-pyridin-3-yl-ethyl)-21-oxa-6-thia-1,14-diaza-bicyclo[21.3.1]heptacosane-2,3,13,16,22-pentaone] has a Kd greater than 1000 nM. With `C=CC[C@@H]1/C=C(\C)C[C@H](C)C[C@H](OC)[C@@H](O)[C@@H](OC)C[C@@H](C)c2ncoc2C(=O)N2CCCC[C@H]2C(=O)O[C@H](/C(C)=C/[C@@H]2CC[C@@H](O)[C@H](OC)C2)[C@H](C)C(O)CC1=O` (stereo partly drawn) [(E)-18-Allyl-11,21-dihydroxy-23-[(E)-2-((R)-4-hydroxy-3-methoxy-cyclohexyl)-1-methyl-vinyl]-10,12-dimethoxy-8,14,16,22-tetramethyl-4,24-dioxa-1,6-diaza-tricyclo[24.4.0.0*3,7*]triaconta-3(7),5,16-triene-2,19,25-] the Kd was 300 nM.
